Laboratory results as given in patent publication US7300946B2, “N-(substituted arylmethyl)-4-(disubstituted methyl) piperidines and pyridines” (Bayer CropScience AG, priority 2002, dated 2007).

System: tobacco budworm (Heliothis virescens [Fabricius])
Experiment: surface-treated diet test against the tobacco budworm
Assay type: in vivo
Details: tobacco budworm second instar larvae, surface-treated diet, 0.25 millimoles of candidate insecticide on the surface of the diet, five-day exposure; for Percent Mortality: compared to total number of insects infested; for Percent Growth Inhibition: inhibition of insect weight relative to untreated controls
Method in brief: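 Wheat germ artificial diet surface-treated with 40 µL of 50 mM DMSO stock diluted 1:7 in 1:1 water/acetone (0.25 millimolar on diet), or sub-multiples for rate tests. One second-instar larva per well, 25° C, 60% RH, 5 days; percent weight inhibition vs DMSO controls and percent mortality.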

## Cc1ccc(NC(=O)NC(c2ccc(OC(F)(F)F)cc2)C2CCN(Cc3ccc(-c4nnn(C)n4)cc3)CC2)cc1 (stereo not drawn) [Compound 342]
  Percent Mortality: 100%
  Percent Growth Inhibition: 100%

## COc1ccc(NC(=O)NC(c2ccc(OC(F)(F)F)cc2)C2CCN(Cc3ccc(-c4nnn(C)n4)cc3)CC2)cc1 (stereo not drawn) [Compound 343]
  Percent Mortality: 100%
  Percent Growth Inhibition: 100%

## Cn1nnc(-c2ccc(CN3CCC(C(NC(=O)Nc4ccc(C(F)(F)F)cc4)c4ccc(OC(F)(F)F)cc4)CC3)cc2)n1 (stereo not drawn) [Compound 344]
  Percent Mortality: 100%
  Percent Growth Inhibition: 100%

## Cn1nnc(-c2ccc(CN3CCC(C(NC(=O)Nc4ccc(OC(F)(F)F)cc4)c4ccc(OC(F)(F)F)cc4)CC3)cc2)n1 (stereo not drawn) [Compound 345]
  Percent Mortality: 100%
  Percent Growth Inhibition: 100%

## Cn1nnc(-c2ccc(CN3CCC(C(NC(=O)Nc4ccc([N+](=O)[O-])cc4)c4ccc(OC(F)(F)F)cc4)CC3)cc2)n1 (stereo not drawn) [Compound 346]
  Percent Mortality: 100%
  Percent Growth Inhibition: 100%

## Cn1nnc(-c2ccc(CN3CCC(C(NC(=O)Oc4ccccc4Cl)c4ccc(OC(F)(F)F)cc4)CC3)cc2)n1 (stereo not drawn) [Compound 347]
  Percent Mortality: 83%
  Percent Growth Inhibition: 100%

## Cn1nnc(-c2ccc(CN3CCC(C(NC(=O)Oc4cccc(Cl)c4)c4ccc(OC(F)(F)F)cc4)CC3)cc2)n1 (stereo not drawn) [Compound 348]
  Percent Mortality: 100%
  Percent Growth Inhibition: 100%

## Cn1nnc(-c2ccc(CN3CCC(C(NC(=O)Oc4ccc(Cl)cc4)c4ccc(OC(F)(F)F)cc4)CC3)cc2)n1 (stereo not drawn) [Compound 349]
  Percent Mortality: 100%
  Percent Growth Inhibition: 100%

## Cn1nnc(-c2ccc(CN3CCC(C(NC(=O)Oc4ccc(Br)cc4)c4ccc(OC(F)(F)F)cc4)CC3)cc2)n1 (stereo not drawn) [Compound 350]
  Percent Mortality: 100%
  Percent Growth Inhibition: 100%

## Cn1nnc(-c2ccc(CN3CCC(C(NC(=O)Oc4ccccc4F)c4ccc(OC(F)(F)F)cc4)CC3)cc2)n1 (stereo not drawn) [Compound 351]
  Percent Mortality: 50%
  Percent Growth Inhibition: 100%

## Cn1nnc(-c2ccc(CN3CCC(C(NC(=O)Oc4cccc(F)c4)c4ccc(OC(F)(F)F)cc4)CC3)cc2)n1 (stereo not drawn) [Compound 352]
  Percent Mortality: 83%
  Percent Growth Inhibition: 100%

## Cn1nnc(-c2ccc(CN3CCC(C(NC(=O)Oc4ccc(F)cc4)c4ccc(OC(F)(F)F)cc4)CC3)cc2)n1 (stereo not drawn) [Compound 353]
  Percent Mortality: 17%
  Percent Growth Inhibition: 87%

## Cn1nnc(-c2ccc(CN3CCC(C(NC(=O)Oc4ccc(I)cc4)c4ccc(OC(F)(F)F)cc4)CC3)cc2)n1 (stereo not drawn) [Compound 354]
  Percent Mortality: 100%
  Percent Growth Inhibition: 100%

## Cc1ccc(OC(=O)NC(c2ccc(OC(F)(F)F)cc2)C2CCN(Cc3ccc(-c4nnn(C)n4)cc3)CC2)cc1 (stereo not drawn) [Compound 355]
  Percent Mortality: 100%
  Percent Growth Inhibition: 100%

## COc1ccc(OC(=O)NC(c2ccc(OC(F)(F)F)cc2)C2CCN(Cc3ccc(-c4nnn(C)n4)cc3)CC2)cc1 (stereo not drawn) [Compound 356]
  Percent Mortality: 100%
  Percent Growth Inhibition: 100%

## Cn1nnc(-c2ccc(CN3CCC(C(NC(=O)Oc4ccc(OC(F)(F)F)cc4)c4ccc(OC(F)(F)F)cc4)CC3)cc2)n1 (stereo not drawn) [Compound 357]
  Percent Mortality: 100%
  Percent Growth Inhibition: 100%

## Cn1nnc(-c2ccc(CN3CCC(C(NC(=O)Oc4ccc([N+](=O)[O-])cc4)c4ccc(OC(F)(F)F)cc4)CC3)cc2)n1 (stereo not drawn) [Compound 358]
  Percent Mortality: 83%
  Percent Growth Inhibition: 99%

## O=C(Nc1ccc(Cl)cc1)OC(c1ccc(C(F)(F)F)cc1)C1CC[N+]([O-])(Cc2ccc(Oc3ccccn3)cc2)CC1 (stereo not drawn) [Compound 395, N-(4-chlorophenyl)({1-[(4-(2-pyridyloxy)phenyl)methyl](4-(1-oxypiperidyl))}[4-(trifluoromethyl)phenyl]methoxy)carboxamide]
  Percent Mortality: 100%
  Percent Growth Inhibition: 100%

## O=C(Nc1ccc(Cl)c(Cl)c1)OC(c1ccc(C(F)(F)F)cc1)C1CC[N+]([O-])(Cc2ccc(Oc3ccccn3)cc2)CC1 (stereo not drawn) [Compound 396]
  Percent Mortality: 100%
  Percent Growth Inhibition: 100%

## O=C(Nc1cc(F)cc(F)c1)OC(c1ccc(C(F)(F)F)cc1)C1CC[N+]([O-])(Cc2ccc(Oc3ccccn3)cc2)CC1 (stereo not drawn) [Compound 397]
  Percent Mortality: 100%
  Percent Growth Inhibition: 100%

## O=C(Nc1ccc(C(F)(F)F)cc1)OC(c1ccc(C(F)(F)F)cc1)C1CC[N+]([O-])(Cc2ccc(Oc3ccccn3)cc2)CC1 (stereo not drawn) [Compound 398]
  Percent Mortality: 100%
  Percent Growth Inhibition: 100%

## Cn1nnc(-c2ccc(C[N+]3([O-])CCC(C(OC(=O)Nc4ccc(Cl)cc4)c4ccc(OC(F)(F)F)cc4)CC3)cc2)n1 (stereo not drawn) [Compound 399]
  Percent Mortality: 100%
  Percent Growth Inhibition: 100%

## Cn1nnc(-c2ccc(C[N+]3([O-])CCC(C(OC(=O)Nc4ccc(F)cc4)c4ccc(OC(F)(F)F)cc4)CC3)cc2)n1 (stereo not drawn) [Compound 400]
  Percent Mortality: 100%
  Percent Growth Inhibition: 100%

## CCn1nnc(-c2ccc(C[N+]3([O-])CCC(C(OC(=O)Nc4ccc(F)cc4)c4ccc(OC(F)(F)F)cc4)CC3)cc2)n1 (stereo not drawn) [Compound 401]
  Percent Mortality: 100%
  Percent Growth Inhibition: 100%

## Cn1nnc(-c2ccc(C[N+]3([O-])CCC(C(OC(=O)Nc4ccc(C(F)(F)F)cc4)c4ccc(OC(F)(F)F)cc4)CC3)cc2)n1 (stereo not drawn) [Compound 402]
  Percent Mortality: 100%
  Percent Growth Inhibition: 100%

## Cn1nnc(-c2ccc(C[N+]3([O-])CCC(C(OC(=O)Nc4ccc(OC(F)(F)F)cc4)c4ccc(OC(F)(F)F)cc4)CC3)cc2)n1 (stereo not drawn) [Compound 404]
  Percent Mortality: 100%
  Percent Growth Inhibition: 100%

## CCn1nnc(-c2ccc(C[N+]3([O-])CCC(C(OC(=O)Nc4ccc(OC(F)(F)F)cc4)c4ccc(OC(F)(F)F)cc4)CC3)cc2)n1 (stereo not drawn) [Compound 405]
  Percent Mortality: 100%
  Percent Growth Inhibition: 100%

## CCCNC(=O)OC(c1ccc(C(F)(F)F)cc1)C1CCN(Cc2ccc(Oc3ccccn3)cc2)CC1 (stereo not drawn) [Compound 427]
  Percent Mortality: 33%
  Percent Growth Inhibition: 100%

## CC(C)NC(=O)OC(c1ccc(C(F)(F)F)cc1)C1CCN(Cc2ccc(Oc3ccccn3)cc2)CC1 (stereo not drawn) [Compound 429]
  Percent Mortality: 100%
  Percent Growth Inhibition: 100%

## O=C(NC1CCCCC1)OC(c1ccc(C(F)(F)F)cc1)C1CCN(Cc2ccc(Oc3ccccn3)cc2)CC1 (stereo not drawn) [Compound 432]
  Percent Mortality: 100%
  Percent Growth Inhibition: 100%

## CCCS(=O)(=O)NC(c1ccc(OC(F)(F)F)cc1)C1CCN(Cc2ccc(-c3nnn(C)n3)cc2)CC1 (stereo not drawn) [Compound 433, [(1-{[4-(2-methyl(1,2,3,4-tetraazol-5-yl))phenyl]methyl}(4-piperidyl))[4-(trifluoromethoxy)phenyl]methyl]propylsulfonylamide]
  Percent Mortality: 100%
  Percent Growth Inhibition: 100%

## Cn1nnc(-c2ccc(CN3CCC(C(Oc4ccc(C(F)(F)F)cn4)c4ccc(OC(F)(F)F)cc4)CC3)cc2)n1 (stereo not drawn) [Compound 434, 2-[(1-{[4-(2-methyl(1,2,3,4-tetraazol-5-yl))phenyl]methyl}(4-piperidyl))[4-(trifluoromethoxy)phenyl]methoxy]-5-(trifluoromethyl)pyridine]
  Percent Mortality: 100%
  Percent Growth Inhibition: 100%

## Cn1nnc(-c2ccc(CN3CCC(C(Oc4ccc(Cl)cn4)c4ccc(C(F)(F)F)cc4)CC3)cc2)n1 (stereo not drawn) [Compound 435]
  Percent Mortality: 100%
  Percent Growth Inhibition: 100%

## O=C(Nc1ccccn1)OC(c1ccc(C(F)(F)F)cc1)C1CCN(Cc2ccc(Oc3ccccn3)cc2)CC1 (stereo not drawn) [Compound 436]
  Percent Mortality: 50%
  Percent Growth Inhibition: 100%

## FC(F)(F)c1ccc(C(Oc2ccc(C(F)(F)F)cn2)C2CCN(Cc3ccc(Oc4ccccn4)cc3)CC2)cc1 (stereo not drawn) [Compound 437]
  Percent Mortality: 100%
  Percent Growth Inhibition: 100%

## FC(F)(F)c1ccc(C(Oc2cc(C(F)(F)F)ccn2)C2CCN(Cc3ccc(Oc4ccccn4)cc3)CC2)cc1 (stereo not drawn) [Compound 438]
  Percent Mortality: 100%
  Percent Growth Inhibition: 100%

## O=C(Nc1ccc(Cl)cn1)OC(c1ccc(C(F)(F)F)cc1)C1CCN(Cc2ccc(Oc3ccccn3)cc2)CC1 (stereo not drawn) [Compound 439]
  Percent Mortality: 100%
  Percent Growth Inhibition: 100%

## FC(F)(F)c1ccc(C(Oc2ccc(C(F)(F)F)cn2)C2CCN(Cc3ccc(Oc4ccc(Cl)nn4)cc3)CC2)cc1 (stereo not drawn) [Compound 440]
  Percent Mortality: 100%
  Percent Growth Inhibition: 100%

## FC(F)(F)c1ccc(C(Oc2cc(C(F)(F)F)ccn2)C2CCN(Cc3ccc(Oc4ccc(Cl)nn4)cc3)CC2)cc1 (stereo not drawn) [Compound 441]
  Percent Mortality: 100%
  Percent Growth Inhibition: 100%

## [O-][N+]1(Cc2ccc(Oc3ccccn3)cc2)CCC(C(Oc2ccc(C(F)(F)F)cn2)c2ccc(C(F)(F)F)cc2)CC1 (stereo not drawn) [Compound 442]
  Percent Mortality: 100%
  Percent Growth Inhibition: 100%

## FC(F)(F)c1ccc(C(Oc2cncc(Cl)c2)C2CCN(Cc3ccc(Oc4ccccn4)cc3)CC2)cc1 (stereo not drawn) [Compound 443]
  Percent Mortality: 33%
  Percent Growth Inhibition: 100%

## O=C(Nc1cccnc1)OC(c1ccc(C(F)(F)F)cc1)C1CCN(Cc2ccc(Oc3ccccn3)cc2)CC1 (stereo not drawn) [Compound 444]
  Percent Mortality: 0%
  Percent Growth Inhibition: 96%

## O=C(Nc1ccc(Cl)nc1)OC(c1ccc(C(F)(F)F)cc1)C1CCN(Cc2ccc(Oc3ccccn3)cc2)CC1 (stereo not drawn) [Compound 445]
  Percent Mortality: 100%
  Percent Growth Inhibition: 100%

## N#Cc1ccc(NC(=O)OC(c2ccc(C(F)(F)F)cc2)C2CCN(Cc3ccc(Oc4ccccn4)cc3)CC2)cn1 (stereo not drawn) [Compound 446]
  Percent Mortality: 17%
  Percent Growth Inhibition: 100%

## O=C(Nc1cccnc1Cl)OC(c1ccc(C(F)(F)F)cc1)C1CCN(Cc2ccc(Oc3ccccn3)cc2)CC1 (stereo not drawn) [Compound 447]
  Percent Mortality: 100%
  Percent Growth Inhibition: 100%
